In brackets after ≈: the same amount, converted by molar mass. Structures can show the parent of a compound that is named as a salt. Where two headings read alike, the source gives them in different places. Blank lines part the entries; values can stand above or below the compound they belong to.
Tests used:
MRSA [1] = test: MIC against MRSA (as defined by CLSI); type: cell-based; conditions: Staphylococcus aureus, FIG. 25
Method: To determine the MIC of the polyamine chains alone and the synthesized compounds against MRSA and P. aeruginosa ATCC 27853, a modified protocol from the Clinical and Laboratory Standards Institute (CLSI) guideline M26-A was used. […] All data was collected using cation adjusted MHB for standardization.
As mentioned, MRSA and P. aeruginosa ATCC 27853 were grown on Columbia blood agar plates prior to experimentation. From the blood agar plates, a 0.5 McFarland standard was made of each isolate. This equated to approximately 5×10^7 cells/mL for the MRSA isolate and approximately 3×10^7 cells/mL for the P. aeruginosa ATCC 27853 isolate. Of the 0.5 McFarland stock solution, 50 μL were added to MHB. […] All tests were performed such that a final volume of 5 mL of MHB were obtained. This provided a final bacterial concentration of approximately 5×10^5 cells/mL.
Each sample was incubated in glass test tubes at 37° C. for 24 hours, then plated in duplicate on tryptic soy agar (TSA) using a 10-fold dilution series. TSA plates were further incubated 24 hours at 37° C. The number of colony forming units (CFU) that grew were counted in order to calculate the number of bacteria that were present per mL in the original MHB solution.

MRSA [2] = test: MIC, 96-well CAMHB, 10^5 to 10^2 CFU/mL in 24 hours; type: cell-based, Staphylococcus aureus; conditions: Staphylococcus aureus, MRSA, read-out: MIC (MRSA)
In short: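 Compound exposure was 24 h at 37 °C in CAMHB with an inoculum of ~5×10^5 CFU/mL from a 0.5 McFarland; eight replicates per concentration.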

P. aeruginosa = test: as above; type: cell-based, Pseudomonas aeruginosa; conditions: Pseudomonas aeruginosa
In short: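 Broth microdilution in CAMHB with about 5×10^5 CFU/mL inoculum, incubated 24 h at 37 °C with graded polyamine compound concentrations. Surviving CFU/mL determined by plating each well on TSA for 24 h at 37 °C; n=8 per concentration.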

human blood = test: Hemolysis test with diluted human blood (ISO 10993-4); type: cell-based
From the text: Procedure: The PBS used in testing was calcium and magnesium free. The method has been validated using human blood from one donor. This is in compliance with ISO 10993-4 which states due to differences in blood activity, human blood should be used where possible. Furthermore, pooling unmatched human blood from multiple donors may cause red blood cell agglutination which in turn could cause hemolysis; this supports the use of a single donor.
The blood was drawn using vacutainers containing 0.1 M sodium citrate at a ratio of 9:1 (3.2% anticoagulant to blood). The blood in this test was used within four hours of blood draw. The collected blood was refrigerated until testing was performed.
A hemoglobin standard was diluted with Drabkin's reagent to give solutions at concentrations of 0.80, 0.60, 0.40, 0.30, 0.20, 0.10, 0.02, and 0.01 mg/ml. These solutions were allowed to stand at room temperature for a minimum of five minutes. The absorbance was read on a spectrophotometer at 540 nanometers (nm). A standard curve was determined with the absorbance values and the standard concentrations of hemoglobin.
Human blood was centrifuged at 700-800×g for 15 minutes. A 1 mL aliquot of the plasma was added into 1 mL of Drabkin's reagent, and placed at room temperature for a minimum of 15 minutes. The absorbance was read on a spectrophotometer at 540 nm. The hemoglobin concentration was determined from the standard curve and then multiplied by a factor of 2 to obtain the total plasma free hemoglobin. The plasma free hemoglobin was less than 2 mg/mL (actual value 0.221 mg/mL). A 20 μL aliquot of blood was added to 5 mL of Drabkin's reagent in duplicate and allowed to stand at room temperature for a minimum of 15 minutes. The absorbance was read on a spectrophotometer at 540 nm then multiplied by 251 to account for the dilution.
Based on the plasma hemoglobin and the blood absorbance against Drabkin's reagent, the blood was diluted out to 10±1 mg/mL with PBS. To verify the blood dilution, a 300 μL aliquot of this blood was added to 4.5 mL of Drabkin's reagent in triplicate and allowed to stand at room temperature for a minimum of 15 minutes. The absorbance was read on a spectrophotometer at 540 nm then multiplied by 16 to account for the dilution.
Glass test tubes were labeled appropriately. Both samples were prepared the same way. The samples were allowed to thaw prior to testing. To each test tube, 7 mL of the test article and 1 mL of the diluted blood were added. The controls consisted of the appropriate amount of control material, 7 mL of PBS and 1 mL of blood. Three tubes were prepared for each test article and control. The tubes were incubated at 37±2° C. for 3 hours±5 minutes. Tubes were gently inverted twice at 30 minute intervals throughout the incubation period. A non-hemolytic negative control, a hemolytic positive control and a PBS blank were included.
After incubation, test articles were centrifuged at 700-800×g for 15 minutes and 1 mL of the supernatant fluid was combined with 1 mL of Drabkin's reagent and allowed to stand at room temperature for a minimum of 15 minutes. Following the centrifugation phase, the supernatant of both test articles visually appeared clear and were particulate free. The PBS blank and the negative control supernatant visually appeared clear and were particulate free. The supernatant of the positive control visually appeared red and were particulate free. The test articles and controls were read at 540 nm in a spectrophotometer.
The hemolytic index (percent hemolysis) was interpreted using the following equation:
[formula] Where: Hemoglobin Released (mg/mL)=(Optical Density×X Coefficient+Constant)×16 Hemoglobin Present (mg/ml)=Diluted Blood 10±1 mg/mL
The corrected hemolytic index was calculated by subtracting the hemolytic index of the PBS blank solution from the hemolytic index of the test article and controls. […]

[3] = system: various bacterial cell cultures; test: Antimicrobial activity of polyamines in hydrogel on agar lawns; type: cell-based; conditions: 0.5% CZ compound in 0.5% sodium hyaluronate gel, 500 uL on TSA lawn, 37 C for 24 hours
Method: A 0.5 McFarland standard of each bacteria was made, then individual lawns of bacteria spread onto the surface of tryptic soy agar (TSA). 500 uL of the suspended gel were placed on the center of each lawn. Plates were incubated at 37 C for 24 hours, then imaged. Images of the resulting gels are shown in FIGS. 30A to 30I show the effects of the polyamines CZ-86, CZ-100, and CZ-110 on various bacterial cell cultures.
The hydrogel that was used for those images is a LifeCore gel with 1% sodium hyaluronate (1% Sodium Hyaluronate Solution Part #82). The CZ compound was suspended in water at 1% (w/w) concentration and combined with the LifeCore gel 1:1 for a final product that contained 0.5% sodium hyaluronate and 0.5% CZ compound.

A. baumannii = test: MIC, 96-well CAMHB, 10^5 to 10^2 CFU/mL in 24 hours; type: cell-based, Acinetobacter baumannii; conditions: Acinetobacter baumannii; Table 5; read-out: MIC (A. bumannii)
Method: To determine the MIC of polyamine compounds, the protocol described herein was used.
In brief, a 0.5 McFarland of each bacterial isolate was made. A 0.5 McFarland is a measure of turbidity in a liquid sample that contains approximately 1×10^∧8 CFU/mL. The 0.5 McFarland standard was diluted in cation adjusted Mueller Hinton Broth (CAMHB), and 50 μL of broth were added to a well of a 96-well plate. In addition, 50 μL of CAMHB that contained a desired concentration of antimicrobial were also added to the well for a final volume of 100 μL and a final concentration of approximately 5×10^4 CFU/well (which equated to approximately 5×10^5 CFU/mL). Each well contained a desired amount of polyamine compound in order to experimentally determine the MIC. Each 96-well plate was incubated at 37° C. for 24 hours. The contents of each well were plated on tryptic soy agar (TSA). TSA plates were incubated for 37° C. for 24 hours after which the number of CFU were counted and used to calculate the CFU/mL that remained after exposure to varying concentrations of compound. This procedure was repeated n=8 times for each concentration of antimicrobial.
A 0.5 McFarland of A. baumannii is made. A 0.5 McFarland is a measure of turbidity in a liquid sample that contains approximately 7.5×10^7 CFU/mL. The 0.5 McFarland standard is diluted in CAMHB and 50 μL of broth is added to a well of a 96-well plate. In addition, 50 μL of CAMHB that contains a desired concentration of antimicrobial is added to the well for a final volume of 100 μL and a final concentration of approximately 5×10^4 CFU/well (which equates to approximately 5×10^5 CFU/mL). Each well contains a desired amount of CZ compound in order to experimentally determine the MIC. Each 96-well plate is incubated at 37° C. for 24 hours. The contents of each well is plated on tryptic soy agar (TSA). TSA plates is incubated at 37° C. for 24 hours after which the number of CFUs is counted and used to calculate the CFU/mL that remain after exposure to varying concentrations of compound. This procedure is repeated n=8 times for each concentration of antimicrobial. […]

L-929 cells (ATCC CCL-1) = test: Minimal Essential Media (MEM) Elution cytotoxicity test; type: cell-based; conditions: Table 9A
In short: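 L-929 cells (ATCC CCL-1) were seeded in multiwell plates and grown to roughly 80% confluence. Test article dilutions (1:2, 1:4, 1:8, 1:16) and control extracts were applied in triplicate and incubated 48±3 hours at 37±1° C. in 5±1% CO2. Wells were scored microscopically for morphological cytotoxicity on a 0–4 scale and averaged; Pass required grade not greater than 2 per USP <87>.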

biofilms of MRSA = conditions: understanding of the inventors; no own test described; cited from earlier work
[4] = Table 5, read-out: MIC (P. aeruginosa)

- MIC (MRSA [1]): > 1200 µg/mL
- MIC (MRSA [2]; Table 5): > 100 µM
- MIC (P. aeruginosa; [4]): > 100 µM
Compound: NCCCNCc1ccccc1 [CZ-4, N^1-benzylpropane-1,3-diamine]

- MIC (MRSA [1]): 300 µg/mL (≈ 1200 µM)
- MIC (MRSA [2]; Table 5): > 100 µM
- MIC (P. aeruginosa; [4]): 50 to 100 µM (≈ 12.5 to 25 µg/mL)
Compound: NCCCNCc1cccc(CNCCCN)c1 [CZ-12]

Compound: CCC(CC)COc1cc(CNCCCNCCCN)cc(CNCCCNCCCN)c1 [CZ-90, N^1,N^1′-((5-(2-ethylbutoxy)-1,3-phenylene)bis(methylene))bis(N^3-(3-aminopropyl)propane-1,3-diamine), hydrochloride salt]
- MIC (MRSA [2]): < 50 µM
- Average Hemolytic Index (% Hemolysis) (human blood): 0.76 % Hemolysis
- Hemolytic Grade (human blood): non-hemolytic
- difference between the hemolytic indexes of test article and negative control (human blood): 0.00%
- Average Optical Density (human blood; 540 nm): 0.003
- Optical Density (human blood; 540 nm, three tubes, 37 ± 2° C., 3 hours): 0.003
- Corrected Hemolytic Index (% Hemolysis) (human blood; hemolytic index of the PBS blank subtracted): 0.00 % Hemolysis
- Hemolytic Index (human blood; three tubes): 0.764
- MIC (P. aeruginosa; read-out: MIC (P. aeruginosa), Table 5): < 50 µM

Compound: CCCCCCCCNCCCNCCCNCc1cccc(CNCCCNCCCNCCCCCCCC)c1 [CZ-100, N^1,N^1′-(1,3-phenylenebis(methylene))bis(N^3-(3-(octylamino)propyl)propane-1,3-diamine)]
- zones of inhibition in bacterial lawns [3]: created zones of inhibition
- MIC (A. baumannii): < 50 µM
- MIC (MRSA [2]; Table 5): < 50 µM
- Results Pass/Fail (L-929 cells (ATCC CCL-1); 3.125 μg/mL): Pass (receives a passing score (Pass) if the reactivity grade is not greater than grade 2 or a mild reactivity)
- Results Pass/Fail (L-929 cells (ATCC CCL-1); 6.25 μg/mL): Pass (receives a passing score (Pass) if the reactivity grade is not greater than grade 2 or a mild reactivity)
- Results Pass/Fail (L-929 cells (ATCC CCL-1); 12.5 μg/mL): Pass (receives a passing score (Pass) if the reactivity grade is not greater than grade 2 or a mild reactivity)
- Results Pass/Fail (L-929 cells (ATCC CCL-1); 25 μg/mL): Fail (a numerical grade greater than 2 is considered a cytotoxic effect, or a failing score (Fail))
- Results Pass/Fail (L-929 cells (ATCC CCL-1); 1.563 (unit not given)): Pass (receives a passing score (Pass) if the reactivity grade is not greater than grade 2 or a mild reactivity)
- MIC (P. aeruginosa; [4]): < 50 µM

Compound: CCCCCCCCNCCCNCCCNCc1cc(CNCCCNCCCNCCCCCCCC)cc(OCCCNCC(C)C)c1 [CZ-110, N^1,N^1′-((5-(3-(isobutylamino)propoxy)-1,3-phenylene)bis(methylene))bis(N^3-(3-(octylamino)propyl)propane-1,3-diamine)]
- zones of inhibition in bacterial lawns [3]: created zones of inhibition
- MIC (A. baumannii): < 50 µM
- MIC (MRSA [2]; Table 5): < 50 µM
- MIC (P. aeruginosa; [4]): < 50 µM

Compound: CC(C)(C)CC(C)(C)c1ccc(OCCOCC[N+](C)(C)Cc2ccccc2)cc1 [benzethonium chloride]
- biofilm dispersal effect (comparison) (biofilms of MRSA): not seen

Compound: N=C(NCCCCCCNC(=N)NC(=N)Nc1ccc(Cl)cc1)NC(=N)Nc1ccc(Cl)cc1.O=C(O)[C@H](O)[C@@H](O)[C@H](O)[C@H](O)CO.O=C(O)[C@H](O)[C@@H](O)[C@H](O)[C@H](O)CO [chlorhexidine gluconate, reference compound]
- biofilm dispersal effect (comparison) (biofilms of MRSA): not seen
- Results Pass/Fail (L-929 cells (ATCC CCL-1); 3.125 μg/mL): Pass (receives a passing score (Pass) if the reactivity grade is not greater than grade 2 or a mild reactivity)
- Results Pass/Fail (L-929 cells (ATCC CCL-1); 6.25 μg/mL): Pass (receives a passing score (Pass) if the reactivity grade is not greater than grade 2 or a mild reactivity)
- Results Pass/Fail (L-929 cells (ATCC CCL-1); 12.5 μg/mL): Pass (receives a passing score (Pass) if the reactivity grade is not greater than grade 2 or a mild reactivity)
- Results Pass/Fail (L-929 cells (ATCC CCL-1); 25 μg/mL): Fail (a numerical grade greater than 2 is considered a cytotoxic effect, or a failing score (Fail))
- Results Pass/Fail (L-929 cells (ATCC CCL-1); 1.563 (unit not given)): Pass (receives a passing score (Pass) if the reactivity grade is not greater than grade 2 or a mild reactivity)
